Assay results as given in patent publication US6340783B1, “Rodent models of human amyloidoses” (University of Washington, priority 1992, dated 2002).
Read-outs that look alike come from different tables or passages of the source.

Tests used:
[1] = molecular target: basic fibroblast growth factor (Homo sapiens, UniProt P09038); conditions: mediated by heparan sulfate GAG chains; cited from earlier work
BAPP-751 = molecular target: T1, BAPP-751 (Homo sapiens, UniProt P05067); conditions: single binding site; cited from earlier work
T1 construct: host or cells: baculovirus-derived

BAPP-770 = molecular target: T2, BAPP-770 (Homo sapiens, UniProt P05067); conditions: single binding site; cited from earlier work
T2 construct: host or cells: baculovirus-derived

BAPP-695 = molecular target: T3, BAPP-695 (Homo sapiens, UniProt P05067); conditions: single binding site; cited from earlier work
T3 construct: host or cells: baculovirus-derived

[2] = system: β/A4 amyloid deposition in rat hippocampus; assay: Rat infusion model of β/A4 amyloid deposition in hippocampus; format: in vivo
Description: For infusion studies, all reagents were dissolved and stored at 4° C. the night prior to surgery. β/A4 (residues 1-40; Bachem California Inc., Torrance, Calif.; Lot #ZJ209) was initially dissolved at 10 mg/ml in 35% acetonitrile (stock solution), with the final diluted concentration of acetonitrile less than 3% in animals infused with β/A4 or its vehicle (see below). Perlecan (basement membrane derived HSPG) and heparan sulfate (HS) GAGs were isolated and purified from the mouse Engelbreth-Holm-Swarm (EHS) sarcoma as described (6), and dissolved in sterile saline at 5 mg/ml and 10 mg/ml, respectively. Male Sprague-Dawley rats (250-300 gms; 3 months old; Harlan Sprague Dawley) were implanted with Alzet 2002 minipumps delivering the following solutions directly into hippocampus at a flow rate of 0.5 μl per hour for one week (7); 1) β/A4 (7.5 μl stock) & HSPG (92.5 μl stock), 6 animals; 2) β/A4 (7.5 μl stock) & HS GAGs (92.5 μl stock), 4 animals; 3) β/A4 (7.5 μl stock) & saline (92.5 μl), 6 animals; 4) HSPG only (100 μl), 4 animals; 5) HS GAGs only (100 μl), 4 animals; 6) saline only (100 μl), 4 animals; and 7) 35% acetonitrile (β/A4 vehicle, 7.5 μl) & saline (92.5 μl), 2 animals. High concentrations of these reagents were chosen to maximize possible effects following infusion into brain. The approximate quantity of β/A4 peptide infused into brain by the end of 1 week in each animal having β/A4 (1-40) as part of the infusate was 75 μg, at least 5 times the amount previously reported in rat models employing single acute injections (8, 9). After one week of continuous infusion, rats were sacrificed by overdose with pentobarbital and perfused with 100 ml of saline followed by 150 ml of 4% paraformaldehyde buffered with phosphate (pH 7.4), postfixed for 24 hours and transferred to phosphate buffered saline for paraffin embedding. Once embedded, consecutive 6 μm serial sections were cut and placed on poly-D-lysine coated slides. Two additional animals in the β/A4 only and the β/A4 & HSPG groups were processed for electron microscopy as described (10).
Detection of infused macromolecules was monitored using two polyclonal antibodies against synthetic β/A4 (either against β/A4 1-28 or 1-40) (13), and two monoclonal antibodies recognizing either HS GAGs (HK-249) (14) or the core protein of perlecan (HK-102) (15). Additionally, two polyclonal antibodies recognizing the core protein of perlecan (17) assessed effects of infused macromolecules (16) on endogenous brain HSPGs. Detection of other AD-like markers included Alz-50 antibody immunostaining (18), and silver staining by the modified Bielschowsky method (19). Possible inflammation-associated amyloid protein involvement was monitored by AA amyloid protein immunostaining (20). The presence of other cell types such as astrocytes was detected by immunostaining with a polyclonal antibody to glial fibrillary acidic protein (GFAP) (1:10,000 dilution; Dako), whereas microglia/macrophage infiltration was detected using a rat monoclonal antibody known as ED1 (1:2500 dilution; Serotec). For all immunostaining, negative controls consisted of using Tris-buffered saline (TBS) instead of the primary antibody, and/or preabsorption experiments using the primary antibody in the presence of excess antigen. In order to quantify possible staining and/or immunostaining differences between the various infusion groups, slides were scored blindly by two independent investigators as described (21) (Table 1; see FIG. 35).
7. Rats were anesthetized with pentobarbital (50 mg/kg) and a 27 gauge steel cannula was stereotactically implanted into the hippocampus using bregma as reference point (AP −4.8; ML 3.5; DV 4), and secured to the skull by machine screws and dental acrylic. The cannula was connected via a 15 cm coil of vinyl tubing to a model 2002 osmotic minipump (Alzet Inc.) placed subcutaneously beneath the shoulder blades. […]

[3] = molecular target: T4, Beta-Amyloid Protein (1-28) (Homo sapiens, UniProt P05067); assay: Competitive inhibition of 125I-labeled HSPG binding to BAP (1-28) affinity column; conditions: for IC50: unlabeled competing ligand, BAP (1-28) affinity column, read-out: concentration at 50% inhibition of 125I-HSPG binding to BAP
T4 construct: residues 1-28 of BAP or residues 597-624 of BAPP; purchased Bachem Inc., Torrance, Calif; host or cells: synthetic peptide
Description: ^125I-labeled HSPGs in the presence of increasing concentrations of unlabeled GAGs, or large low density HSPG (from EHS sarcoma) were applied to an Affi-gel 10 column containing BAP (residues 1-28). After nonbound PGs were eluted from the column using TBS+0.1% TX-100, bound PGs were eluted with a step gradient using 15 ml of 1M MgCl2 in TBS+0.1% TX-100, followed by 15 ml of 4M MgCl2 in TBS+0.1% TX-100, and then 10 ml of 8M urea buffer containing 3M NaCl. […] Bars indicate standard error of the mean.
In order to test the specificity of HSPG binding to BAP (1-28), competitive inhibition experiments were also performed. 125-I labeled HSPGs (100,000-200,000 dpm) were mixed with (a) HSPG from EHS sarcoma (Mr approximately 700,000) (Kato et al., 1988) (gift of Dr. Koji Kimata, Aichi, Japan), (b) heparin from porcine intestinal mucosa (Mr˜11,000; Sigma, St. Louis, Mo.), (c) chondroitin-6-sulfate from shark cartilage (Mr˜59,000; Sigma, St. Louis, Mo.), or (d) […] dextran sulfate (Mr˜110,000; Pharmacia Fine Chemicals, Uppsala, Sweden). The samples were incubated on a rotator for 2 hours at room temperature and then applied to the BAP (1-28) column. Columns were run and eluted with step gradients (1 to 4 M MgCl2) as described above.
Purified iodinated HSPGs were combined with various concentrations of unlabeled competing ligands and applied to a BAP (1-28) affinity column (FIG. 10).

BAP (residues 1-28) = molecular target: T5, BAP (residues 1-28) (Homo sapiens, UniProt P05067); assay: Affinity column chromatography of labeled proteoglycans on BAP (1-28) Affi-gel 10 column; format: binding; conditions: after heparitinase/heparinase digestion
T5 construct: residues 1-28 of BAP or residues 597-624 of BAPP; purchased Bachem Inc., Torrance, Calif; host or cells: synthetic peptide
Description: Approximately 500,000 dpm of ^35S-sulfate labeled PGs isolated from the culture media of ECs were applied to Affi-gel 10 affinity columns containing approximately 0.45 mg of 1) residues 1-28 of BAP, 2) residues 410-429, a region of BAPP present in the extracellular domain, or 3) bovine serum albumin. The labeled PGs were left on the column for 1 hour, after which non-bound radiolabelled PGs were eluted with 25 ml (50 0.5 ml fractions) of TBS+0.1% TX-100 and collected on a fraction collector. Bound PGs were then eluted from the column with 15 mls of 4M MgCl2 in TBS+0.1% TX-100.
0.5 mg or 1.0 mg of ligands consisting of 1) BAP (1-28) (Bachem Inc., Torrance, Calif.), 2) a peptide corresponding to residues 410-429 of the BAPP (gift of Dr. Dennis Selkoe, Boston, U.S.A.) or 3) bovine serum albumin (BSA fraction V, Boehringer, Mannheim Biochemical) were dissolved initially in 400 μl of double distilled water to which was added an equal volume of 0.2 M HEPES buffer (pH 7.5) containing 160 mM calcium chloride. The ligand solutions were added to 0.8-1.0 ml of Affi-gel 10 (Biorad, Richmond, Calif.) and coupling was allowed to proceed for 4 hours at 4° C., after which 1/10 volume of IM ethanolamine (pH 8.0) was added and incubation continued for an additional 1-2 hours to block remaining unreacted ester groups. Gel coupled ligand was then transferred to Biorad Econo-columns and washed with TBS in 0.1% Triton-X 100. To assess the amount of bound ligand, soluble (nonbound) protein remaining in the wash buffer was assayed. The affinity columns coupled approximately 90% of ligand initially applied (i.e. 0.45 mg or 0.90 mg).
^35S-sulfate labeled PGs isolated from the culture media (360,000 dpm) of ECs and SMCs were applied to Affi-gel 10 columns containing 1) BAP (residues 1-28), 2) BAPP (residues 410-429) or 3) Bovine serum albumin. The labeled PGs were allowed to interact with the affinity gel for 1 hour (preliminary experiments indicated maximum binding efficiency at 1 hour) and non-bound radiolabelled PGs were eluted with 25 ml of TBS+0.1% Triton X-100 (TBS-TX 100). Bound PGs were eluted with either a single-step gradient using 15 mls of 4M MgCl2 in TBS-TX 100 or a linear gradient of 0 to 4M MgCl2 in TBS-TX 100. In some experiments, columns were further eluted with 15 ml of 8M urea in 50 mM Tris-HCl (pH 7.5), with 0.5% Triton X-100 and 3M NaCl. The radioactivity per fraction was determined by scintillation counting. Most experiments were repeated a minimum of three times. Recoveries of applied radioactivity from the affinity columns ranged from 80-95%.

fibronectin = fibronectin (Homo sapiens, UniProt P02751); conditions: via the core protein; cited from earlier work
[4] = system: HSPGs in AA amyloidotic mouse spleen; assay: In situ binding of BAP (1-28) to AA amyloidotic tissue sections
From the text: Six micron sections of paraffin-embedded AA amyloidotic spleen and liver (gift of Dr. Robert Kisilevsky, Kingston, Canada) were used for the in situ binding studies. AA amyloid was induced in CBA/J female mice (6-8 weeks old) using amyloid enhancing factor and silver nitrate, as previously described (Axelrad et al., 1982; Snow and Kisilevsky, 1985).
Immunostaining of tissue sections was accomplished using the avidin-biotin-immunoperoxidase method, employing the appropriate biotin-labeled secondary antibodies, followed by incubation with avidin-conjugated horseradish peroxidase complex (Vector Labs, Burlingame, Calif.). Peroxidase activity was produced by treatment with 3,3-diaminobenzidine as previously described (Snow et al., 1988a). For immunocytochemical staining, the primary antibody was used initially through a series of dilutions to obtain the best specificity with the least background staining. Only results using the optimal dilutions of primary antibody are reported.
Paraffin sections of mouse AA amyloidotic liver or spleen (obtained 4 days after initial AEF+ silver nitrate induction) were treated overnight at 4° C. with a 0.3 mg/ml or 0.5 mg/ml solution of a peptide corresponding to the extracellular domain of BAP (residues 1-28 of BAP or residues 597-624 of BAPP) (Bachem Inc., Torrance, Calif.) in Tris-buffered saline (TBS). After 18 hours, non-bound BAP was removed by extensive washing in 4 changes of TBS. Bound-BAP was then detected by immunostaining tissue sections with either of two BAP polyclonal antibodies as described above. […] These treatments included: 1) 0.50 units/ml of chondroitin ABC lyase (Seikagaku Kogyo Co. Ltd., through ICN Biomedicals) in 0.1 M enriched Tris-acetate buffer (pH 8.0) at 37° C. for 6 hours (Saitoh et al., 1968), 2) a solution of 20% nitrous acid: 33% acetic acid (1:1, volume/volume) incubated at room temperature for 6 hours (Snow et al., 1987) and 3) 10 units/ml of heparinase I and heparitinase I (Sigma, St. Louis, Mo.) in 0.20 M Tris-HCl buffer (pH 7.0) with 20 mM calcium acetate added, at 37° C. for 6 hours. […]

Chain of basic fibroblast growth factor (P09038 143-288, species assumed): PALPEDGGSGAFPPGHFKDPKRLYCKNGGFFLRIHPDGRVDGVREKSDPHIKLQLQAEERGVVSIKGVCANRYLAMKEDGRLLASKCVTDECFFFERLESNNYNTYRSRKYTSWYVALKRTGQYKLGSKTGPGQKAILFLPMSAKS
Chain of fibronectin (P02751 32-2477, species assumed): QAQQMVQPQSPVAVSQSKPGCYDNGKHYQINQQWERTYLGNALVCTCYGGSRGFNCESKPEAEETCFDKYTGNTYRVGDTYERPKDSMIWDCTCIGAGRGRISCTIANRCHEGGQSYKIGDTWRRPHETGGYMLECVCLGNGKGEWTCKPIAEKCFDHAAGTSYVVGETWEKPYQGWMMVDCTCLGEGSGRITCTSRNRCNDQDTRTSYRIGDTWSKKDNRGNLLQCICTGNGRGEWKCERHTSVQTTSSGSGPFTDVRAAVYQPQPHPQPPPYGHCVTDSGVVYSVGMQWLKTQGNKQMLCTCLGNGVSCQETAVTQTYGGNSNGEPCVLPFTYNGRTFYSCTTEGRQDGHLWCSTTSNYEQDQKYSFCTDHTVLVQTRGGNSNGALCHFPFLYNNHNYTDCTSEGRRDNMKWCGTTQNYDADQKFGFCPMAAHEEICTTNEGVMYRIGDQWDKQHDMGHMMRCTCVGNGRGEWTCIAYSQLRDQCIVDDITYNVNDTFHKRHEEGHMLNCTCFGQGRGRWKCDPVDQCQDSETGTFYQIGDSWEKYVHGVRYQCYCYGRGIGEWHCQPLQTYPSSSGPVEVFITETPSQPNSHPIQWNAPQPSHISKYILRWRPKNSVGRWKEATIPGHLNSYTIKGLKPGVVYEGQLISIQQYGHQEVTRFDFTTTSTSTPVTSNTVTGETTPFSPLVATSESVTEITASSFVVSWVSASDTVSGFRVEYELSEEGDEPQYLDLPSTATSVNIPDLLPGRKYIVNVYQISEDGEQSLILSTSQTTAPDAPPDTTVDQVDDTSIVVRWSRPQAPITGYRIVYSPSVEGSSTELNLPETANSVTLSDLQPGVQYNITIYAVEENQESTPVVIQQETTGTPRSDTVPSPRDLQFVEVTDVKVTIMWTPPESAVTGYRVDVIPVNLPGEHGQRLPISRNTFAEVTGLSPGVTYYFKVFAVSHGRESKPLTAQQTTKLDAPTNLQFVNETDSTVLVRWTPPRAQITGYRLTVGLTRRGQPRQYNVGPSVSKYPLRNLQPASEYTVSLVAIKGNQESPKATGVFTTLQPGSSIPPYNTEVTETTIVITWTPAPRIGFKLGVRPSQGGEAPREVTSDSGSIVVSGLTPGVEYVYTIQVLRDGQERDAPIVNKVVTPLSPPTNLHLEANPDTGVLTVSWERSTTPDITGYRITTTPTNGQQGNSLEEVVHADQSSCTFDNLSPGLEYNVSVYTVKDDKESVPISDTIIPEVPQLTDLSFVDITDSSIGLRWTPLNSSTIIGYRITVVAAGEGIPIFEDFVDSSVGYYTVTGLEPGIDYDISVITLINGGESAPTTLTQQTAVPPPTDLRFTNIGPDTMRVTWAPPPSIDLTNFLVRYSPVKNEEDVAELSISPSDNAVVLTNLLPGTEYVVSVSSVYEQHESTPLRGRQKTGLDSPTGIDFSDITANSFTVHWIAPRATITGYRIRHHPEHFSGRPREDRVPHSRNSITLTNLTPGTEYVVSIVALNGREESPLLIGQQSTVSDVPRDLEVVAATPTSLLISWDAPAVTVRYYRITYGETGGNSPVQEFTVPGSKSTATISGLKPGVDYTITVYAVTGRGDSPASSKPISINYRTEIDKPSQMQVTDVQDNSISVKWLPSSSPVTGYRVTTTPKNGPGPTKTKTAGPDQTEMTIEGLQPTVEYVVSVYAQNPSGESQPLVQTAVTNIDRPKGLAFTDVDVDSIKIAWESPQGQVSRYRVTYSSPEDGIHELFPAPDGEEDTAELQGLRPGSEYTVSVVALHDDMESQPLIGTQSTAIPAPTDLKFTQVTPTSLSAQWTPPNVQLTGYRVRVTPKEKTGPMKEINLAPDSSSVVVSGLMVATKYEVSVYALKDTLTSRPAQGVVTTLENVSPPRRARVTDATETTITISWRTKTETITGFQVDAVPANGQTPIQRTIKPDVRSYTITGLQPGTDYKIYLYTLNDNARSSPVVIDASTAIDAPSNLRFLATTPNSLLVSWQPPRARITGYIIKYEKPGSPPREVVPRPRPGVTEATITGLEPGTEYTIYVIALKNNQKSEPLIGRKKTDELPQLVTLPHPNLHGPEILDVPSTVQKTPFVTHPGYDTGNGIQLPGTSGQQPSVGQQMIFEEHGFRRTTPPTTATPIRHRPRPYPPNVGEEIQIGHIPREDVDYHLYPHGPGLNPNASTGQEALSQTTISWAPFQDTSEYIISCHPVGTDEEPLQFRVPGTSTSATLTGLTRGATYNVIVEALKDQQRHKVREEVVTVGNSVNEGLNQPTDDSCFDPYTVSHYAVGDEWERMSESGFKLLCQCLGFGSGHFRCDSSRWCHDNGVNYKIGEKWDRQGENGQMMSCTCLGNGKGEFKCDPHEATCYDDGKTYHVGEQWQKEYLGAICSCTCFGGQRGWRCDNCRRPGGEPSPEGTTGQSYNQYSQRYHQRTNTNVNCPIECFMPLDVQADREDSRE

In the case of “EHS basement-membrane HSPG: basement membrane derived heparan sulfate proteoglycan (perlecan) from mouse Engelbreth-Holm-Swarm sarcoma, Mr approximately 700,000”, the Kd [1] is listed as 30000 nM, the Kd (BAPP-751) is listed as 10 nM and the Kd (BAPP-770) is listed as 9 nM. For the same substance, the Kd (BAPP-695) was 0.9 nM, the “Alz-50 immunostaining adjacent to infusion site” value ([2]; 1 week infusion) was “Lack” and the “inhibition of binding of 125I-labeled HSPGs to the BAP (in words)” value (“inhibition” below) ([3]; listed as EHS HSPG) was “more effective competitor”. The “inhibition” value ([3]; listed as isolated basement membrane HSPG) was “strongly inhibited” and the IC50 [3] was < 1000 nM.

With “chondroitin-6-sulfate [reference compound]” the “inhibition” value [3] was “not” and the “competition for binding of 125I-labeled HSPG to BAP” value ([3]; at all concentrations except 100 uM) was “unable to compete”.

With heparin [reference compound] the IC50 [3] was 10000 nM.

For “heparitinase-digested ^125I-labeled HSPGs: 125I-labeled HSPG digested with a heparitinase/heparinase mixture (core protein)”, the “HSPGs still able to bind to the BAP column in comparison to undigested controls” value (BAP (residues 1-28)) was 61%.

In the case of “high Mr HSPG of human lung fibroblasts: high Mr HSPG of human lung fibroblasts (Heremans et al. 1990)”, the Kd (fibronectin) is listed as 2 nM.

For “synthetic BAP (residues 1-28): peptide corresponding to the extracellular domain of BAP (residues 1-28 of BAP or 597-624 of BAPP), Bachem”, the “BAP immunoreactivity at sites of HSPG accumulation after peptide pretreatment” value ([4]; sections pretreated overnight at 4° C. with peptide) was “strong positive immunoreactivity”, the “change in BAP immunostaining” value ([4]; sections pretreated with acetic acid or chondroitin ABC lyase) was “little to no decrease” and the “change in BAP immunoreactivity” value ([4]; sections pretreated with nitrous acid or heparitinase/heparinase) was “some loss”.

With “β/A4 (1-40): synthetic β/A4 residues 1-40; Bachem California Inc.” the “HSPG core protein immunostaining score versus groups where HSPG was part of the infusate” value ([2]; 1-week infusion groups) was “not significantly different”, the “scoring of congo red staining” value ([2]; 1-week infusion groups) was “significant increase” and the “scoring of thioflavin S fluorescence” value ([2]; 1-week infusion groups) was “significant increase”. For the same substance, the “animals demonstrating deposition of congophilic amyloid material in brain” value ([2]; 1 week continuous infusion into hippocampus) was 4 of 6 and the “animals with (endogenous) HSPG immunostaining” value ([2]; 1 week, HSPG not part of the infusate) was “four”.
